In brackets after ≈: the same amount, converted by molar mass. Where two headings read alike, the source gives them in different places.
Assays:
E. faecium CT-26 = experiment: MIC determination, E. faecium CT-26; assay type: cell-based, Enterococcus faecium; details: for MIC: Enterococcus faecium
[1] = system: S. epidermidis ATCC 12228; experiment: MIC determination, S. epidermidis ATCC 12228; assay type: cell-based, Staphylococcus epidermidis; details: for MIC: Staphylococcus epidermidis
S. aureus ATCC 29213 = experiment: MIC determination, S. aureus ATCC 29213; assay type: cell-based, Staphylococcus aureus; details: for MIC: Staphylococcus aureus
E. faecalis ATCC 29212 = experiment: MIC determination, E. faecalis ATCC 29212; assay type: cell-based, Enterococcus faecalis; details: for MIC: Enterococcus faecalis
[2] = system: M. catarrhalis ATCC 25238; experiment: MIC determination, M. catarrhalis ATCC 25238; assay type: cell-based; details: for MIC M. catarrhalis ATCC 25238: Table 1; for MIC: Moraxella catarrhalis
S. pneumoniae ATCC 6301 = experiment: MIC determination, S. pneumoniae ATCC 6301; assay type: cell-based, Streptococcus pneumoniae; details: for MIC: Streptococcus pneumoniae; for MIC S. pneumoniae ATCC 6301: Table 1
[3] = CT26, Table 1, read-out: MIC E. faecium CT-26
[4] = ATCC12228, Table 1, read-out: MIC S. epidermidis ATCC 12228
[5] = ATCC29213, Table 1, read-out: MIC S. aureus ATCC 29213
[6] = ATCC29212, Table 1, read-out: MIC E. faecalis ATCC 29212
[7] = ATCC6301, Table 1, read-out: MIC S. pneumoniae ATCC 6301
[8] = ATCC25238, Table 1, read-out: MIC M. catarrhalis ATCC 25238

| Compound | MIC (E. faecium CT-26; [3]) [µg/mL] | MIC [1, 4] [µg/mL] | MIC (E. faecalis ATCC 29212; [6]) [µg/mL] | MIC M. catarrhalis ATCC 25238 [2] [micrograms per ml] | MIC S. aureus ATCC 29213 (S. aureus ATCC 29213; Table 1) [micrograms per ml] | MIC E. faecalis ATCC 29212 (E. faecalis ATCC 29212; Table 1) [micrograms per ml] | MIC E. faecium CT-26 (E. faecium CT-26; Table 1) [micrograms per ml] | MIC S. epidermidis ATCC 12228 ([1]; Table 1) [micrograms per ml] | MIC S. pneumoniae ATCC 6301 (S. pneumoniae ATCC 6301) [micrograms per ml] | other results |
| --- | --- | --- | --- | --- | --- | --- | --- | --- | --- | --- |
| 4-hydroxybenzimidazole [Compound 120] |  |  |  |  |  |  |  |  |  | MIC E. faecium CT-26 (E. faecium CT-26; Table 2): 8 micrograms per ml; MIC S. epidermidis ATCC 12228 ([1]; Table 2): 4 micrograms per ml; MIC S. aureus ATCC 29213 (S. aureus ATCC 29213; Table 2): 0.125 micrograms per ml; MIC E. faecalis ATCC 29212 (E. faecalis ATCC 29212; Table 2): 8 micrograms per ml |
| Oc1cccc2nc[nH]c12 [Compound 11, 4-hydroxybenzimidazole] | 8 (≈ 59.6 µM) | 4 (≈ 29.8 µM) | 8 (≈ 59.6 µM) |  |  |  |  |  |  | MIC (S. aureus ATCC 29213; [5]): 0.125 µg/mL (≈ 0.932 µM) |
| Oc1ccc(F)c2cccnc12 [Compound 12] | 4 (≈ 24.5 µM) | 2 (≈ 12.3 µM) | 8 (≈ 49 µM) | 2 | 0.125 |  |  |  |  | MIC (S. pneumoniae ATCC 6301; [7]): 2 µg/mL (≈ 12.3 µM) |
| Oc1ccc(Cl)c2cccnc12 [Compound 13] | 2 (≈ 11.1 µM) | 1 (≈ 5.57 µM) |  |  | 0.125 | 64 |  |  |  | MIC [2, 8]: 0.25 µg/mL (≈ 1.39 µM); MIC (S. pneumoniae ATCC 6301; [7]): 1 µg/mL (≈ 5.57 µM) |
| Cc1ccnc2c(O)cccc12 [Compound 14] | 4 (≈ 25.1 µM) | 1 (≈ 6.28 µM) | 64 (≈ 402 µM) |  | 0.125 |  |  |  |  | MIC [2, 8]: 0.5 µg/mL (≈ 3.14 µM); MIC (S. pneumoniae ATCC 6301; [7]): 1 µg/mL (≈ 6.28 µM) |
| Oc1cccc2cccnc12 [Compound 15, 8-hydroxyquinoline] |  |  |  | 0.5 | 0.125 | 16 | 4 | 1 | 2 |  |
| Nc1ccc2cccc(O)c2n1 [Compound 17] |  |  |  |  |  |  |  |  |  | MIC ([2]; ATCC25238, read-out: MIC M. catarrhalis ATCC 25238): 2 µg/mL (≈ 12.5 µM); MIC (E. faecium CT-26; CT26, read-out: MIC E. faecium CT-26): 8 µg/mL (≈ 49.9 µM); MIC ([1]; ATCC12228, read-out: MIC S. epidermidis ATCC 12228): 2 µg/mL (≈ 12.5 µM); MIC (S. pneumoniae ATCC 6301; ATCC6301, read-out: MIC S. pneumoniae ATCC 6301): 2 µg/mL (≈ 12.5 µM); MIC (S. aureus ATCC 29213; ATCC29213, read-out: MIC S. aureus ATCC 29213): 0.25 µg/mL (≈ 1.56 µM); MIC (E. faecalis ATCC 29212; ATCC29212, read-out: MIC E. faecalis ATCC 29212): 8 µg/mL (≈ 49.9 µM) |
| Oc1cccc2cccnc12 [Compound 18, 8-hydroxyquinoline] |  |  |  | 1 | 0.25 | 8 | 4 | 1 | 2 |  |
| N#Cc1ccc(OB(c2cccc(Cl)c2)c2cccc(Cl)c2)c2ncccc12 [Compound 19, Bis(3-Chlorophenyl)borinic acid 5-cyano-8-hydroxyquinoline ester] |  |  |  | 0.5 | 0.25 | 16 | 4 | 2 | 4 |  |
| Oc1cccc2cccnc12 [Compound 20, 8-hydroxyquinoline] |  |  |  | 2 | 0.25 | 8 | 4 | 1 | 2 |  |
| N#Cc1ccc(O)c2ncccc12 [Compound 21, 5-cyano-8-hydroxyquinoline] | 8 (≈ 47 µM) | 4 (≈ 23.5 µM) | 16 (≈ 94 µM) |  |  |  |  |  |  | MIC [2, 8]: 0.25 µg/mL (≈ 1.47 µM); MIC (S. pneumoniae ATCC 6301; [7]): 2 µg/mL (≈ 11.8 µM); MIC (S. aureus ATCC 29213; [5]): 0.5 µg/mL (≈ 2.94 µM) |
| O=[N+]([O-])c1ccc(O)c2ncccc12 [Compound 22] | 16 (≈ 84.1 µM) | 4 (≈ 21 µM) | 64 (≈ 337 µM) |  |  |  |  |  |  | MIC [2, 8]: 0.12 µg/mL (≈ 0.631 µM); MIC (S. pneumoniae ATCC 6301; [7]): 2 µg/mL (≈ 10.5 µM); MIC (S. aureus ATCC 29213; [5]): 0.5 µg/mL (≈ 2.63 µM) |
| Oc1c(Cl)cc(Cl)c2cccnc12 [Compound 23] |  |  | 64 (≈ 299 µM) |  | 0.5 |  | 16 | 16 |  | MIC [2, 8]: 0.12 µg/mL (≈ 0.561 µM); MIC (S. pneumoniae ATCC 6301; [7]): 8 µg/mL (≈ 37.4 µM) |
| Oc1c(Br)cc(Br)c2cccnc12 [Compound 24] | 32 (≈ 106 µM) | 8 (≈ 26.4 µM) | 64 (≈ 211 µM) |  |  |  |  |  |  | MIC [2, 8]: 0.12 µg/mL (≈ 0.396 µM); MIC (S. pneumoniae ATCC 6301; [7]): 8 µg/mL (≈ 26.4 µM); MIC (S. aureus ATCC 29213; [5]): 0.5 µg/mL (≈ 1.65 µM) |
| COc1cccc2c(O)cc(C(=O)O)nc12 [Compound 25] | 16 (≈ 73 µM) | 8 (≈ 36.5 µM) | 16 (≈ 73 µM) |  |  |  |  |  |  | MIC [2, 8]: 2 µg/mL (≈ 9.12 µM); MIC (S. pneumoniae ATCC 6301; [7]): 2 µg/mL (≈ 9.12 µM); MIC (S. aureus ATCC 29213; [5]): 0.5 µg/mL (≈ 2.28 µM) |
| CB(Oc1cccc2cccnc12)c1cccs1 [Compound 26, (2-Thienyl)methylborinic acid 8-hydroxyquinoline ester] |  |  |  |  | 0.5 | 4 | 4 | 1 |  |  |
| Oc1cccc2cccnc12 [Compound 27, 8-hydroxyquinoline] |  |  |  | 1 | 0.5 | 8 | 2 | 1 | 1 |  |
| Oc1cccc2cccnc12 [Compound 28, 8-hydroxyquinoline] |  |  |  | 1 | 0.5 | 4 | 2 | 1 | 2 |  |
| Oc1cccc2cccnc12 [Compound 29, 8-hydroxyquinoline] |  |  |  | 0.5 | 0.5 | 8 | 2 | 1 | 2 |  |
| Oc1cccc2cccnc12 [Compound 30, 8-hydroxyquinoline] |  |  |  |  | 1 | 2 | 2 | 0.5 |  |  |
| O=C(O)c1cc(O)c2ccccc2n1 [Compound 31] | 1 (≈ 5.29 µM) | 1 (≈ 5.29 µM) | 2 (≈ 10.6 µM) |  |  |  |  |  |  | MIC (S. aureus ATCC 29213; [5]): 1 µg/mL (≈ 5.29 µM) |
| Oc1cccc2cccnc12 [Compound 32, 8-hydroxyquinoline] |  |  |  | 2 | 1 | 16 | 2 | 1 | 1 |  |
| Oc1cccc2cccnc12 [Compound 33, 8-hydroxyquinoline] |  |  |  | 2 | 1 | 8 | 2 | 1 | 1 |  |
| Oc1ccc(F)c2cccnc12 [Compound 34] |  |  |  | 1 | 1 | 8 | 4 | 2 | 2 |  |
| Oc1ccc(F)c2cccnc12 [Compound 35] |  |  |  | 2 | 1 | 8 | 4 | 2 | 2 |  |
| Clc1cccc(B(Oc2cccc3cccnc23)c2cccs2)c1 [Compound 36, (3-Chlorophenyl)(2-thienyl)borinic acid 8-hydroxyquinoline ester] |  |  |  | 4 | 1 | 8 | 2 | 1 | 2 |  |
| Oc1cccc2cccnc12 [Compound 37, 8-hydroxyquinoline] |  |  |  | 1 | 1 | 8 | 2 | 1 | 1 |  |
| Oc1cccc2cccnc12 [Compound 52, 8-hydroxyquinoline] |  |  |  |  | 2 | 8 | 16 | 4 |  |  |
| Oc1cccc2cccnc12 [Compound 76, 8-hydroxyquinoline] |  |  |  |  | 2 | 8 | 4 | 1 |  |  |

Reference: patent US7390806B2, “Antibiotics containing borinic acid complexes and methods of use” (Anacor Pharmaceuticals, Inc., priority 2002, dated 2008)
